Reference: patent US9133154B2, “Substituted 3-phenylpropylamine derivatives for the treatment of ophthalmic diseases and disorders” (Acucela Inc., priority 2013, dated 2015)
“Also recorded” adds a separate entry of the source. Read-outs that look alike come from different tables or passages of the source.

What was measured:
[1] = system: isomerase (recovery of 11-cis-retinal after bleaching); experiment: In vivo murine isomerase assay; conditions: mice, oral gavage
Procedure: The capability of compounds described herein to inhibit isomerase was determined by an in vivo murine isomerase assay. […] The recovery of 11-cis-retinal after bleaching can be used to estimate the activity of isomerase in vivo. Delayed recovery, as represented by lower 11-cis-retinal oxime levels, indicates inhibition of isomerization reaction.
Mice were gavaged with the test compound. […] The mice were allowed to recover 2 hours in the dark. The animals were then sacrificed by carbon dioxide inhalation. Retinoids were extracted from the eye and the regeneration of 11-cis-retinal was assessed at various time intervals.
After the mice were sacrificed, the eyes were immediately removed and placed in liquid nitrogen for storage.
The eyes were placed in 500 μL of bis-tris propane buffer (10 mM, pH˜7.3) and 20 μL of 0.8M hydroxile amine (pH˜7.3). The eyes were cut up into small pieces with small iris scissors and then thoroughly homogenized at 30000 rpm with a mechanical homogenizer (Polytron PT 1300 D) in the tube until no visible tissue remained. 500 μL of methanol and 500 μL of heptane were added to each tube. The tubes were attached to a vortexer so that the contents were mixed thoroughly for 15 minutes in room temperature. The organic phase was separated from the aqueous phase by centrifugation for 10 min at 13K rpm, 4° C. 240 μL of the solution from the top layer (organic phase) was removed and transferred to clean 300 μl glass inserts in HPLC vials using glass pipette and the vials were crimped shut tightly.
The samples were analyzed on an Agilent 1100 HPLC system with normal phase column: SILICA (Beckman Coutlier, dp 5 μm, 4.6 mM×250 mM). […] Loading volume for each sample was 100 μA detection wavelength was 360 nm. The area under the curve for 11-cis retinal oxime was calculated by Agilent Chemstation software and was recorded manually. Data processing was performed using Prizm software.
Positive control mice (no compound administered) were sacrificed fully dark-adapted and the eye retinoids analyzed. Light (bleached) control mice (no compound administered) were sacrificed and retinoids isolated and analyzed immediately after light treatment.
A time course study was performed to determine the isomerase inhibitory activity of the test compound. […] The animals were then “photo-bleached” (5000 Lux white light for 10 minutes) at 2, 4, 8, 16 and 24 hours after dosing, and returned to darkness to allow recovery of the 11-cis-retinal content of the eyes. Mice were sacrificed 2 hours after bleaching, eyes were enucleated, and retinoid content is analyzed by HPLC.
Recovery control mice (vehicle-only treated) were light-treated and left to recover for 2 hours in the dark before sacrifice and analysis. Light control mice (vehicle only treated) were sacrificed for analysis immediately after photo-bleaching.
An in vivo dose response isomerase inhibition study was performed with test compound. […] Recovery and retinoid analysis were performed as described above. Dark control mice were vehicle-only treated, sacrificed fully dark adapted without light treatment, and analyzed. Recovery control mice and light control mice were included in the study as per the initial phase.

[2] = target: T1, recombinant human RPE65 and LRAT (visual cycle isomerase) (Homo sapiens, UniProt Q16518); experiment: Human in vitro isomerase inhibition assay; conditions: comparison compounds
T1 sequence (Q16518 2-533): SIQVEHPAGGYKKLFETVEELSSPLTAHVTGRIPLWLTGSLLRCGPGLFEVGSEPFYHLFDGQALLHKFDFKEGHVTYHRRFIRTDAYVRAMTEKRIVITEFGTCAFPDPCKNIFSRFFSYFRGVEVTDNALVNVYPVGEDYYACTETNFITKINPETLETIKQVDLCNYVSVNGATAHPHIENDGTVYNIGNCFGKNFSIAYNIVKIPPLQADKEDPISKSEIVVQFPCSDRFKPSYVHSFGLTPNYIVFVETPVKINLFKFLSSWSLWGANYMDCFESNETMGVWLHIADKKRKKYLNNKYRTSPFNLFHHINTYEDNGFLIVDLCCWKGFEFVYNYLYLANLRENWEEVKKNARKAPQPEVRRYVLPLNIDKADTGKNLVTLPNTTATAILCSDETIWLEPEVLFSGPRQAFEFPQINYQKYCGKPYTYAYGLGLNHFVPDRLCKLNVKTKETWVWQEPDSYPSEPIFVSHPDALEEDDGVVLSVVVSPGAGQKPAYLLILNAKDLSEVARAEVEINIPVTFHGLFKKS

[3] = system: retinal isomerase activity (recovery of 11-cis-retinal); experiment: Comparative in vivo murine isomerase assay, dose response; parameters: species or system BALB/c mice; conditions: BALB/c mice, 2 hours; for Avg. % Inhibition: 11-cis-retinal, drug vs. recovery control
Procedure: (§1) All test compounds were stored at room temperature, dessicated.
On the day prior to dose administration compound A and compound D were weighed into new empty glass vials. The compounds were dissolved in di-water at the concentration of 0.833 mg/mL compound A and 0.892 mg/mL compound D, serially diluted into various concentrations, and stored overnight at 4° C.
56 Male BALB/c mice (Charles River Laboratories) were used for this study. The mice were approximately 8 weeks at the initiation of dosing with an average body weight of 24 grams.
The day prior to dose administration 56 BALB/c mice were placed into a dark room and dark adapted for a minimum of 12 hours prior to dose administration. The mice were maintained in the dark for the duration of the study.
(§2) Each animal was removed from its cage and dosed accordingly to the study design in Table 4 (see below). Each animal was administered 0.1 mL of the appropriate compound or vehicle via oral gavage using a 1 mL syringe fitted with a 23 gauge oral gavage needle. Two hours following dose administration, animals were removed from the dark and exposed to 5000 Lux white light for 10 minutes to photobleach their eyes. Following the completion of the photobleach the animals were returned to the dark for 2 hours to allow for the regeneration of 11-cis-retinal in the eyes. Two hours after photobleaching each animal was euthanized with carbon dioxide followed by cervical dislocation, in the dark under red light. The light control group was euthanized immediately following photobleaching. Immediately following the cervical dislocation both eyes of each animal were removed and transferred into separate tubes, flash frozen in liquid nitrogen and stored in the dark at −80° C. until processing and analysis.
(§3) All sample processing procedures were performed in the dark under red light.
Extracted samples were analyzed using an Agilent 1100 HPLC system according to the procedure outlined in Table 6 (see below)
(§4) HPLC analysis of the eyes measures the peak area units of the 110cis-Ral-Oxime_syn. Signal.
(§5) Data analysis % inhibition (drug vs. recovery control). % control (drug vs. light control), and One-way ANOVA (followed by Tukey's Multiple Comparison) were performed using peak area units and performed by Prism software. Data are represented as mean and standard deviation.

[4] = system: regeneration of 11-cis-retinal; experiment: Single dose time course in the in vivo isomerase assay at 0.3 mg/kg; parameters: species or system BALB/c mice; conditions: BALB/c mice, single oral 0.3 mg/kg; for activity at 0.3 mg/kg: Mus musculus, read-out: Percent Control (Avg. % Inhibition)
Procedure: as §1
The compounds were dissolved in di-water at the concentration of 0.068 mg/mL and stored overnight at 4° C.
52 Male BALB/c mice (Charles River Laboratories) were used for this study. The mice were approximately 8 weeks at the initiation of dosing with an average body weight of 23 grams.
The day prior to dose administration 52 BALB/c mice were placed into a dark room and dark adapted for a minimum of 12 hours prior to dose administration. The mice were maintained in the dark for the duration of the study.
as §2, with “Table 10” for “Table 4”, “appropriate test article” for “appropriate compound”, “vehicle orally” for “vehicle via oral gavage”, “needle. At 2, 4, 6, 8, 16 or 24” for “needle. Two”
as §3
Extracted samples were analyzed using an Agilent 1100 HPLC system according to the procedure outlined in Table 12 (see below)
as §4, §5

`COC(=O)N1CCC(COc2cccc([C@H](O)CCN)c2)CC1` [Example 17, (R)-Methyl 4-((3-(3-amino-1-hydroxypropyl)phenoxy)methyl)piperidine-1-carboxylate] was tested, and the “% Inhibition” value ([1]; dose 1 mg/kg, time 4 h) was 85%.

In the case of `NCC[C@@H](O)c1cccc(OCC2CCCOC2)c1` (mixture of isomers) [Example 3, (1R)-3-Amino-1-(3-((tetrahydro-2H-pyran-3-yl)methoxy)phenyl)propan-1-ol], the “% Inhibition” value ([1]; dose 0.3 mg/kg, time 2 h) is reported as 75.1%.

Compound `NCC[C@@H](O)c1cccc(NCC2CCCCC2)c1` has an IC50 [2] of 6.3 nM.

`NCCC(O)c1cccc(OCC2CCCCO2)c1` (stereo not shown) [compound D, reference compound] was tested, and the “Avg. % Inhibition” value ([3]; oral 0.3 mg/kg, 0.3 mg/kg) was “no inhibition”, the “Avg. % Inhibition” value ([3]; oral 3 mg/kg, 3 mg/kg) was “same level of inhibition” and the “significance of inhibitory effect on the recovery of 11-cis-retinal vs. recovery control” value ([3]; single oral dose 0.03-3 mg/kg) was “statistically significant difference, P<0.001 for 1 and 3 mg/kg dose levels; also recorded: significant inhibitory effect at 1 mg/kg and 3 mg/kg dose levels”. The “IC50 (dose response experiment)” value ([3]; single oral dose) was 0.59 mg/kg, the “dose at which 11-cis-retinal recovery was inhibited by 50%” value ([3]; single oral dose) was 0.59 mg/kg and the “significance of inhibitory effect on the recovery of 11-cis-retinal vs. recovery control” value ([4]; 2, 4, 6, 8, 16 and 24 hours, 0.3 mg/kg) was “not a statistically significant difference, P>0.05 for any time points; also recorded: no significant inhibitory effect at any time points; also recorded: did not exhibit a significant difference from the control group at any time point”. For the same compound, the activity at 0.3 mg/kg ([4]; time point 2 hours) was 86.8%, the activity at 0.3 mg/kg ([4]; time point 4 hours) was 102% and the activity at 0.3 mg/kg ([4]; time point 6 hours) was 87.9%. The activity at 0.3 mg/kg ([4]; time point 8 hours) was 94.6%, the activity at 0.3 mg/kg ([4]; time point 16 hours) was 104% and the activity at 0.3 mg/kg ([4]; time point 24 hours) was 89.5%. For the same compound, the IC50 [2] was 24 nM.
